Values of other authors in PubChem BioAssay AID1259410 (Chemical Carcinogenesis Research Information System (CCRIS), 2018).

Test system: rodent tumor promotion studies, tumor incidence
Experiment: CCRIS tumor promotion studies
[1] = Carcinogen: 7,12-DIMETHYLBENZ(A)ANTHRACENE, Doses [Carcinogen]: TOP, Route [Carcinogen]: DERMAL, Route [Promoter]: DERMAL, Species: MOUSE, Strain/Sex: FEMALE

CC(=O)Nc1ccc2c(c1)Cc1ccccc1-2
outcome (Carcinogen: DIETHYLNITROSAMINE, 55-18-5, Doses [Carcinogen]: 50 MG/KG ONCE 24 HR AFTER 2/3 PARTIAL HEPATECTOMY, Doses [Promoter]: 0, 0.02% IN DIET FOR 1 MO BEGINNING 1 WK POST CARCINOGEN DOSE (STUDY DURATION: 8 MO), Route [Carcinogen]: INTRAPERITONEAL, Route [Promoter]: ORAL, Species: RAT, Strain/Sex: WISTAR/MALE): liver: carcinoma | outcome (Carcinogen: DIETHYLNITROSAMINE, 55-18-5, Doses [Carcinogen]: 200 MG/KG BW IN 0.9% SALINE ONCE, Doses [Promoter]: 0, 0.05 MMOL/KG BW IN POLYETHYLENE GLYCOL FOR 5 D BEGINNING 1 WK POST CARCINOGEN DOSE, 70% PARTIAL HEPATECTOMY PERFORMED, Route [Carcinogen]: INTRAPERITONEAL, Route [Promoter]: GAVAGE, Species: RAT, Strain/Sex: SPRAGUE-DAWLEY/MALE): liver: hepatocellular carcinoma

O=NN(CCO)CCO
outcome (Carcinogen: NITROSO(2-OXOPROPYL)AMINE, 60599-38-4, Doses [Carcinogen]: 12 MG/ML IN ETHYL ACETATE/CORN OIL (1:1) 2/WK FOR 2 WK, Doses [Promoter]: 0, 100 MG/L IN DRINKING WATER 5 D/WK FOR 40 WK BEGINNING 1/WK POST CARCINOGEN TREATMENT (STUDY DURATION: 43 WK), Route [Carcinogen]: GAVAGE, Route [Promoter]: ORAL, Species: RAT, Strain/Sex: F344/MALE): kidney: renal cell carcinoma

Oc1ccc(I)cc1
outcome [1]: integumentary system (skin)

CN=C(NC#N)NCCSCc1nc[nH]c1C
outcome (Carcinogen: 1,2-DIMETHYLHYDRAZINE, 540-73-8, Doses [Carcinogen]: 30 MG/KG BW 1/WK FOR 5 WK, Doses [Promoter]: 0, 500 MG/L IN DRINKING WATER BEGINNING 4 D POST LAST CARCINOGEN DOSE (STUDY DURATION: 6 MO), Route [Carcinogen]: GAVAGE, Route [Promoter]: ORAL, Species: RAT, Strain/Sex: SPRAGUE-DAWLEY/MALE): intestine: tumor

Oc1ccccc1Cl
outcome [1]: integumentary system (skin)

CCOC(=O)C(C)(C)Oc1ccc(Cl)cc1
outcome (Carcinogen: DIETHYLNITROSAMINE [55-18-5], Doses [Carcinogen]: 200 MG/KG BW ONCE (STUDY DURATION: 24 WK), Doses [Promoter]: 0, 3000 PPM IN DIET FOR 22 WK BEGINNING 2 WK POST CARCINOGEN DOSE AND 1 WK PRIOR TO 2/3 PARTIAL HEPATECTOMY (STUDY DURAT, Route [Carcinogen]: INTRAPERITONEAL, Route [Promoter]: ORAL, Species: RAT, Strain/Sex: F344/MALE): liver: hepatocellular adenoma | outcome (Carcinogen: DIETHYLNITROSAMINE [55-18-5], Doses [Carcinogen]: 200 MG/KG BW ONCE (STUDY DURATION: 48 WK), Doses [Promoter]: 0, 3000 PPM IN DIET FOR 46 WK BEGINNING 2 WK POST CARCINOGEN DOSE AND 1 WK PRIOR TO 2/3 PARTIAL HEPATECTOMY (STUDY DURAT, Route [Carcinogen]: INTRAPERITONEAL, Route [Promoter]: ORAL, Species: RAT, Strain/Sex: F344/MALE): liver: hepatocellular adenoma | outcome (Carcinogen: DIETHYLNITROSAMINE [55-18-5], Doses [Carcinogen]: 200 MG/KG BW ONCE (STUDY DURATION: 52 WK), Doses [Promoter]: 0, 3000 PPM IN DIET FOR 46 WK BEGINNING 2 WK POST CARCINOGEN DOSE AND 1 WK PRIOR TO 2/3 PARTIAL HEPATECTOMY (STUDY DURAT, Route [Carcinogen]: INTRAPERITONEAL, Route [Promoter]: ORAL, Species: RAT, Strain/Sex: F344/MALE): liver: hepatocellular adenoma | outcome (Carcinogen: DIETHYLNITROSAMINE, 55-18-5, Doses [Carcinogen]: 10 MG/KG IN SALINE ONCE 24 HR AFTER RECEIVING 70% PARTIAL HEPATECTOMIES, Doses [Promoter]: 0, 0.01% IN DIET FOR DURATION OF STUDY BEGINNING 2 WK POST CARCINOGEN DOSE (STUDY DURATION: 18 MO), Route [Carcinogen]: GAVAGE, Route [Promoter]: ORAL, Species: RAT, Strain/Sex: SPRAGUE-DAWLEY/FEMALE): liver: hepatocellular carcinoma | outcome (Carcinogen: DIETHYLNITROSAMINE, 55-18-5, Doses [Carcinogen]: 100 PPM IN DRINKING WATER FOR 2 WK, Doses [Promoter]: 0, 0.5% IN DIET BEGINNING 1 WK POST LAST CARCINOGEN DOSE AND CONTINUING FOR DURATION OF STUDY (STUDY DURATION: 32 WK), Route [Carcinogen]: ORAL, Route [Promoter]: ORAL, Species: RAT, Strain/Sex: WISTAR/MALE): liver: hepatocellular carcinoma | outcome (Carcinogen: DIETHYLNITROSAMINE, 55-18-5, Doses [Carcinogen]: 150 MG/KG BW ONCE, Doses [Promoter]: 0, 0.1% IN DIET FOR 37 WK BEGINNING 2 WK POST CARCINOGEN TREATMENT (STUDY DURATION: 39 WK), Route [Carcinogen]: INTRAPERITONEAL, Route [Promoter]: ORAL, Species: RAT, Strain/Sex: F344/MALE): liver: adenoma

Clc1cc(Cl)c(-c2ccc(Cl)c(Cl)c2Cl)cc1Cl
outcome (Carcinogen: N-NITROSODIMETHYLAMINE, 62-75-9, Doses [Carcinogen]: 5 MG/KG IN SALINE ON POSTNATAL DAY 4, Doses [Promoter]: 0, 20 MG/KG IN OLIVE OIL ON POSTNATAL DAY 8 (STUDY DURATION: 16 WK), Route [Carcinogen]: INTRAPERITONEAL, Route [Promoter]: GAVAGE, Species: MOUSE, Strain/Sex: SWISS/MALE, FEMALE): lung: tumor

COC(=O)[C@@H](N)Cc1ccc(O)cc1
outcome (Carcinogen: N-METHYL-N'-NITRO-N-NITROSOGUANIDINE, 70-25-7, Doses [Carcinogen]: 25 UG/ML IN DRINKING WATER FOR 25 WK, Doses [Promoter]: 0, 512 MG/KG BW IN 0.9% SALINE 1/2 D FOR 26 WK BEGINNING 1 WK POST CARCINOGEN TREATMENT (STUDY DURATION: 52 WK), Route [Carcinogen]: ORAL, Route [Promoter]: SUBCUTANEOUS, Species: RAT, Strain/Sex: WISTAR/MALE): stomach: adenocarcinoma | outcome (Carcinogen: N-METHYL-N'-NITRO-N-NITROSOGUANIDINE, 70-25-7, Doses [Carcinogen]: 50 UG/ML IN DRINKING WATER FOR 20 WK, Doses [Promoter]: 0, 2 ML/KG IN A VOLUME OF 2 ML/KG 0.9% NACL AT DOSE LEVEL OF 512 MG/KG/BW 1/2 D FOR 32 WK (STUDY DURATION: 32 WK), Route [Carcinogen]: ORAL, Route [Promoter]: SUBCUTANEOUS, Species: RAT, Strain/Sex: WISTAR/MALE): stomach: adenocarcinoma

CCCCCCCCCC(=O)OC[C@H](CO)OC(=O)CCCCCCCCC
outcome (Carcinogen: 7,12-DIMETHYLBENZ[A]ANTHRACENE, 57-97-6, Doses [Carcinogen]: 200 NMOL IN 200 µL OF ACETONE ONCE, Doses [Promoter]: 0, 2, 5 UMOL IN 20 µL ACETONE 2/D 5 D/WK FOR 20 WK BEGINNING 1 WK AFTER LAST CARCINOGEN DOSE (STUDY DURATION: 24 WK), Doses [Promoter]: 0, 2, 5 UMOL IN 20 µL ACETONE 2/D 5 D/WK FOR 20 WK BEGINNING 1 WK AFTER LAST CARCINOGEN DOSE (STUDY DURATION: 24 WK), Route [Carcinogen]: DERMAL, Route [Promoter]: DERMAL, Species: MOUSE, Strain/Sex: CD-1/FEMALE): skin: papilloma

Cc1cc(=O)n(-c2ccccc2)n1C
outcome (Carcinogen: DIHYDROXY-DI-N-PROPYLNITROSAMINE, 53609-64-6, URACIL, 66-22-8, Carcinogen: DIHYDROXY-DI-N-PROPYLNITROSAMINE, 53609-64-6, URACIL, 66-22-8, Doses [Carcinogen]: 1% DHPN IN DRINKING WATER AND 3% URACIL IN DIET FOR 4 WK, Doses [Promoter]: 0, 1% IN DIET BEGINNING 1 WK POST CARCINOGEN TREATMENT AND CONTINUING FOR 35 WK (STUDY DURATION: 40 WK), Route [Carcinogen]: ORAL, ORAL, Route [Promoter]: ORAL, Species: RAT, Strain/Sex: F344/MALE): kidney: adenoma or adenocarcinoma

CC(C(=O)O)c1ccc(-c2ccccc2)c(F)c1 (configuration not stated)
outcome (Carcinogen: N-METHYL-N'-NITRO-N-NITROSOGUANIDINE, 70-25-7, Doses [Carcinogen]: 10 MG ADMINISTERED AS 3 D TREATMENT CYCLES FOLLOWED BY REST PERIODS FOR A TOTAL OF 6 CYCLES (TOTAL DOSE 180 MG DURING 40, Doses [Promoter]: 0.5 MG ADMINISTERED AS 3 D TREATMENT CYCLES FOLLOWED BY REST PERIODS ADMINISTERED CONCURRENTLY WITH CARCINOGEN DURING 40, Route [Carcinogen]: INTRAGASTRIC, Route [Promoter]: GAVAGE, Species: RAT, Strain/Sex: WISTAR/FEMALE): stomach: adenocarcinoma; small intestine: adenocarcinoma

C=C[C@@]1(C)CC[C@](C)(C(C)C)c2cc3c4c(c[nH]c4c21)C[C@@H](CO)NC(=O)[C@H](C(C)C)N3C
outcome (Carcinogen: 7,12-DIMETHYLBENZ[A]ANTHRACENE, 57-97-6, Doses [Carcinogen]: 100 UG ONCE, Doses [Promoter]: 0, 5.5 NMOL 2/WK FOR 19 WK BEGINNING 1 WK POST CARCINOGEN DOSE (STUDY DURATION: 20 WK), Route [Carcinogen]: DERMAL, Route [Promoter]: DERMAL, Species: MOUSE, Strain/Sex: CD-1/FEMALE): skin: tumor | outcome (Carcinogen: 7,12-DIMETHYLBENZ[A]ANTHRACENE, Doses [Carcinogen]: 100 UG ONCE, Doses [Promoter]: 2.5 UG IN ACETONE 2/WK FOR 30 WK, Route [Carcinogen]: DERMAL, Route [Promoter]: DERMAL, Species: MOUSE, Strain/Sex: CD-1/FEMALE): integumentary system (skin): papilloma, carcinoma

CCCCCCCC/C=C/CCCCCCCC(=O)OCCOCC(OCCO)C1OCC(OCCO)C1OCCO (configuration not stated)
outcome [1]: integumentary system (skin)

N#CS
outcome (Carcinogen: N-BIS(2-HYDROXYPROPYL)NITROSAMINE, 53609-64-6, Doses [Carcinogen]: 280 MG/100 G/BW ONCE, Doses [Promoter]: 0, 0.5% IN DRINKING WATER FOR 25 WK (STUDY DURATION: 26 WK), Route [Carcinogen]: SUBCUTANEOUS, Route [Promoter]: ORAL, Species: RAT, Strain/Sex: F344/MALE): thyroid: neoplasm
